Our source for the IC50 values is US10112922B2, “Inhibitor of bruton's tyrosine kinase” (Centaurus BioPharma Co., Ltd., priority 2014, dated 2018).

Usually IC50 stands for the midpoint of a concentration-inhibition curve.

One assay has as its target ITK kinase (Homo sapiens (Human), UniProt Q08881). Nature of the assay: ITK kinase enzymatic assay (same HTRF method as BTK). The class given is biochemical. As to conditions: Table 1; read-out: Itk IC50. Here is the method:
(§1) The compounds were gradiently diluted 3 folds starting from 1 mM with 100% DMSO (totally 11 concentrations). 4 μL of each sample with a different concentration was added into 96 μL of reaction buffer (50 mM HEPES, pH 7.4, 10 mM MgCl2, 1 mM EGTA, 0.01% Tween-20, 0.005% BAS, 2 mM DTT). […] The mixture was centrifuged to mix well, followed by adding 2.5 μL of a mixture of ATP (final concentration designated as Km) and TK petide (HTRF® KinEASE™-TK, Cisbio) to initiate the reaction (total reaction volume being 10 μL). […] The enzyme activity for each compound was determined at 11 concentrations, and IC50 values were obtained by GraFit Software 6.0 (Erithacus Software).
In vitro activity in inhibiting ITK kinase was determined similar to that in respect of BTK kinase.
On the technique in general: In TR-FRET formats the signal depends on donor and acceptor labels being close together.

The next assay concerns the target Btk kinase (Homo sapiens (Human), UniProt Q06187). Description: Btk kinase enzymatic activity assay (HTRF). Format: biochemical. As to conditions: Table 1; read-out: Btk IC50. Here is the method: The half inhibition concentrations (IC50 values) of the compounds disclosed herein on Btk were determined at both enzymatic level and cellular level: the ability of the compounds to inhibit the activity of Btk kinase was determined in an enzymtic activity assay, and the inhibitory effect of the compounds on BCR-induced calcium flux in cells was determined in a cellular function assay.
as §1

ITK kinase, sequence (Q08881 whole entry): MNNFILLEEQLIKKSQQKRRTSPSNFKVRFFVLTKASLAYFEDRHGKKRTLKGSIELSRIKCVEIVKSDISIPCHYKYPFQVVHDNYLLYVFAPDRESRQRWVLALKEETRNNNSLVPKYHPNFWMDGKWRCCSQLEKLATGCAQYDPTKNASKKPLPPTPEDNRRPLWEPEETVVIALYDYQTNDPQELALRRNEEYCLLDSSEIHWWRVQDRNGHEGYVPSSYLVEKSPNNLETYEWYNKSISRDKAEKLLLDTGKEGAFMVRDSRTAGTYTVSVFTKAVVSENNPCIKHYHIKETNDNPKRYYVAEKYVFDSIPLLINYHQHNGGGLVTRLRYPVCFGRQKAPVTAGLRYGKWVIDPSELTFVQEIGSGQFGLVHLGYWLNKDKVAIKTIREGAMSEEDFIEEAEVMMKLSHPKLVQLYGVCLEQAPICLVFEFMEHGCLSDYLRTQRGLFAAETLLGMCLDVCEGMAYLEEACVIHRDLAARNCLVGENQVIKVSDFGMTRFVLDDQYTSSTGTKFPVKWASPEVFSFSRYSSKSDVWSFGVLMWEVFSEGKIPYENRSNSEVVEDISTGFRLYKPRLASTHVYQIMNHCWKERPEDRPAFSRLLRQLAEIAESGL
Btk kinase, sequence (Q06187 whole entry): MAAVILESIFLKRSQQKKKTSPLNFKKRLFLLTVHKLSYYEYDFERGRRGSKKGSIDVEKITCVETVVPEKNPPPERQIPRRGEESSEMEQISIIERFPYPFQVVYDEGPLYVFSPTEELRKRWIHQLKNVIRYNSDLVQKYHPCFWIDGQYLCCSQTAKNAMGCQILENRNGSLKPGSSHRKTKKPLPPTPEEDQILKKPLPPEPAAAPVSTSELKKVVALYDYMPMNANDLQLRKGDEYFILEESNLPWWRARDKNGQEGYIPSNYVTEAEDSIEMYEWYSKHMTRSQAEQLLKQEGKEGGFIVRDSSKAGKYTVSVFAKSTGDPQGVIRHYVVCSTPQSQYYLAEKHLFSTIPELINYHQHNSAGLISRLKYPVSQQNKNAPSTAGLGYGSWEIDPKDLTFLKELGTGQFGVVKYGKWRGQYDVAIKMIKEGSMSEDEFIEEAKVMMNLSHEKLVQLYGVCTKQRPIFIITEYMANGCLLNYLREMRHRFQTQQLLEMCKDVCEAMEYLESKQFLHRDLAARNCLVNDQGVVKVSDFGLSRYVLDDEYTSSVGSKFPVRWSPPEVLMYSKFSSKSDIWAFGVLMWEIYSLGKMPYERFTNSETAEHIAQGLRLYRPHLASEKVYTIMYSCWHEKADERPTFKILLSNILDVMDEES

For the compound `C=CS(=O)(=O)N1CCC[C@@H](n2nc(-c3ccc(Oc4ccccc4)cc3)c(C(N)=O)c2N)C1` [Example 1, (R)-5-amino-3-(4-phenoxyphenyl)-1-(1-(vinylsulfonyl)piperidin-3-yl)-1H-pyrazole-4-carboxamide], the concentration for half-maximal inhibition (IC50) at ITK kinase and on Btk kinase was less than 100 nM in each case.

For the compound `C=CS(=O)(=O)N1CC[C@@H](n2nc(-c3ccc(Oc4ccccc4)cc3)c(C(N)=O)c2N)C1` [Example 2, (R)-5-amino-3-(4-phenoxyphenyl)-1-(1-(vinylsulfonyl)pyrrolidin-3-yl)-1H-pyrazole-4-carboxamide], the IC50 on ITK kinase and on Btk kinase was less than 100 nM throughout.

Take `CN(C)C/C=C/C(=O)N1CC[C@@H](n2nc(-c3ccc(Oc4ccccc4)cc3)c(C(N)=O)c2N)C1` [Example 3, (R,E)-5-amino-1-(1-(4-(dimethylamino)but-2-enoyl)pyrrolidin-3-yl)-3-(4-phenoxyphenyl)-1H-pyrazole-4-carboxamide]: the figures for the half-inhibitory concentration (IC50) at ITK kinase and on Btk kinase were greater than 1000 nM and less than 100 nM, respectively.

As for `NC(=O)c1c(-c2ccc(Oc3ccccc3)cc2)nn([C@@H]2CCN(C(=O)/C=C/CN3CCOCC3)C2)c1N` [Example 4, (R,E)-5-amino-1-(1-(4-morpholinobut-2-enoyl)pyrrolidin-3-yl)-3-(4-phenoxyphenyl)-1H-pyrazole-4-carboxamide], the values for the IC50 at ITK kinase and at Btk kinase were greater than 1000 nM and less than 100 nM, respectively.

As for `NC(=O)c1c(-c2ccc(Oc3ccccc3)cc2)nn([C@@H]2CCN(C(=O)/C=C/CN3CCCCC3)C2)c1N` [Example 5, (R,E)-5-amino-3-(4-phenoxyphenyl)-1-(1-(4-(piperidin-1-yl)but-2-enoyl)pyrrolidin-3-yl)-1H-pyrazole-4-carboxamide], the concentration for half-maximal inhibition (IC50) is greater than 1000 nM on ITK kinase and less than 100 nM at Btk kinase.

As to `NC(=O)c1c(-c2ccc(Oc3ccccc3)cc2)nn([C@@H]2CCN(C(=O)/C=C/CN3CCCC3)C2)c1N` [Example 6, (R,E)-5-amino-3-(4-phenoxyphenyl)-1-(1-(4-(pyrrolidin-1-yl)but-2-enoyl)pyrrolidin-3-yl)-1H-pyrazole-4-carboxamide], the IC50 at ITK kinase was greater than 1000 nM; on Btk kinase it was less than 100 nM.

For the compound `CC(C)/C=C/C(=O)N1CC[C@@H](n2nc(-c3ccc(Oc4ccccc4)cc3)c(C(N)=O)c2N)C1` [Example 8, (R,E)-5-amino-1-(1-(4-methylpent-2-enoyl)pyrrolidin-3-yl)-3-(4-phenoxyphenyl)-1H-pyrazole-4-carboxamide], the half-inhibitory concentration (IC50) on ITK kinase is greater than 1000 nM; at Btk kinase, less than 100 nM.

`NC(=O)c1c(-c2ccc(Oc3ccccc3)cc2)nn([C@@H]2CCN(C/C=C/C(=O)O)C2)c1N` [Example 10, (R,E)-4-(3-(5-amino-4-carbamoyl-3-(4-phenoxyphenyl)-1H-pyrazol-1-yl)pyrrolidin-1-yl)but-2-enoic Acid]: the IC50 is greater than 1000 nM on ITK kinase and less than 100 nM at Btk kinase.

In the case of `NC(=O)c1c(-c2ccc(Oc3ccccc3)cc2)nn([C@@H]2CCN(C(=O)/C=C\C(=O)O)C2)c1N` [Example 11, (R,Z)-4-(3-(5-amino-4-carbamoyl-3-(4-phenoxyphenyl)-1H-pyrazol-1-yl)pyrrolidin-1-yl)-4-oxobut-2-enoic Acid], the values for the 50% inhibitory concentration (IC50) on ITK kinase and on Btk kinase were greater than 1000 nM and less than 100 nM, respectively.

Regarding `NC(=O)c1c(-c2ccc(Oc3ccccc3)cc2)nn([C@@H]2CCN(C(=O)/C=C/CBr)C2)c1N` [Example 12, (R,E)-5-amino-1-(1-(4-bromobut-2-enoyl)pyrrolidin-3-yl)-3-(4-phenoxyphenyl)-1H-pyrazole-4-carboxamide], the figures for the IC50 on ITK kinase and on Btk kinase were greater than 1000 nM and less than 100 nM, respectively.

`CC(=O)OC/C=C/C(=O)N1CC[C@@H](n2nc(-c3ccc(Oc4ccccc4)cc3)c(C(N)=O)c2N)C1` [Example 13, (R,E)-4-(3-(5-amino-4-carbamoyl-3-(4-phenoxyphenyl)-1H-pyrazol-1-yl)pyrrolidin-1-yl)-4-oxobut-2-en-1-yl acetate]: the 50% inhibitory concentration (IC50) on ITK kinase was greater than 1000 nM; on Btk kinase, less than 100 nM.
